Test results published in US20250127908A1, “HETEROBIFUNCTIONAL CONDITIONAL INHIBITORS” (Kolm Therapeutics Inc., priority 2023, published 2025).

What was measured:
[1] = test system: VCaP cells; assay: VCaP growth inhibition assay (CTG); format: cell-based; conditions: Homo sapiens, 216 h, 30 pM R1881, 9-day treatment, CTG luminescence
Procedure: Example B-2: VCaP Growth Inhibition Assay
VCaP cells (ATCC Cat #CRL-2876) are plated at 1×10^4 cells per well of a white plastic 96-well cluster plate (Thermo Scientific Nunc Cat #165306) in 100 uL phenol red-free DMLEM (Gibco Cat #21063-029) media with […] (Omega Scientific Cat #FB-04). Cluster plates are returned to the incubator (37*C/5% CO2) for 72 hours prior to treatment. Just prior to treatment, 100 uL of phenol red-free DMEM/5% CSS and 60 pM Ri881 (Sigma Cat #R0908-10 mg) was added to each well of the cluster plates (Final R1881 concentration=30 pM). Compounds (200×) were added to each well in a volume of 1 uL, with serial dilutions (1:5) from 20 uM to 2 pM (final concentrations in well are 100 nM to 10 fMV). Cluster plates are returned to the incubator for 9 days.
(§1) After the 9-day treatment period, media was removed from the cluster plates by inversion and 100 uL room temperature CTG reagent (Promega Cat #G7573) is added to each well. The cluster plates are placed on a shaker and incubated at room temperature for 20 minutes. Following this shaking/incubation, cluster plates are read on a luminometer (BMG ClarioStar). IC50 values are obtained by graphing the RLU data vs. compound concentration with nonlinear regression 4-parameter logistic curves (GraphPad Prism).

[2] = test system: HEK-293 cells; assay: HEK-293 growth inhibition assay (CTG); format: cell-based; conditions: Homo sapiens, HEK293, 72 h, 3-day treatment, CTG luminescence
Procedure: Example B-4: HEK-293 Growth Inhibition Assay
HEK-293 cells (ATCC Cat #CRL-1573) are plated at 3×10^3 cells per well of a white plastic 96-well cluster plate (Thermo Scientific Nunc Cat #165306) in 200 uL DMLEM (ATCC Cat #30-2002) media with 10% FBS (Gibco Cat #26140-079). Cluster plates are returned to the incubator (37*C/5% CO2) for 24 hours prior to treatment. Compounds (200×) were added to each well in a volume of 1 uL, with serial dilutions (1:5) from 2 mM to 200 pM (final concentrations in well are 10 uM to 1 pM). Cluster plates are returned to the incubator for 3 days.
as §1, with “3-day” for “9-day”, “period, 100 uL” for “period,”, “each well” for “the cluster plates”, “aspiration” for “inversion”, “added back” for “added”, “ICs50” for “IC50”

CNC(=O)N1CCc2c(c(N3CCCc4cc(-c5cnn(C)c5)c(C(F)F)cc43)nn2C2CCN(C(=O)COCCOCC3CCN(CC4CCN(c5ccc([C@H]6c7ccc(O)cc7CC[C@H]6c6ccccc6)cc5)CC4)CC3)CC2)C1 [Compound 10, 3-[7-(difluoromethyl)-6-(1-methylpyrazol-4-yl)-3,4-dihydro-2H-quinolin-1-yl]-1-[1-[2-[2-[[1-[[1-[4-(6-hydroxy-2-phenyl-tetralin-1-yl)phenyl]-4-piperidyl]methyl]-4-piperidyl]methoxy]ethoxy]acetyl]-4-piperidyl]-N-methyl-6,7-dihydro-4H-pyrazolo[4,3-c]pyridine-5-carboxamide]
IC50 [1]: 0.001 to 0.1 µM | IC50 [2]: > 1 µM
